These results are taken from patent US9133099B2, “Compounds and their salts specific to the PPAR receptors and the EGF receptors and their use in the medical field” (Nogra Pharma Limited, priority 2005, dated 2015).

The subject of one test is DLD-1 cells. Nature of the test: Colon cancer cell growth, BrdU incorporation, DLD-1 cells. It counts as cell-based, human. Conditions: for effect on cell growth at high doses (in words) / inhibition at 10000 µM: 10 mM; for effect on cell growth at high doses (in words): differences among groups not statistically significant; for inhibition at 500 µM / inhibition at 1000 µM / inhibition at 2500 µM / inhibition at 5000 µM / inhibition at 10000 µM: Homo sapiens, BrdU; for inhibition at 500 µM: 0.5 mM; for inhibition at 500 µM / inhibition at 1000 µM / inhibition at 2500 µM / inhibition at 5000 µM / inhibition at 10000 µM / effect on cell growth (in words): DLD-1 cells, 48 hours; for inhibition at 1000 µM: 1 mM; for inhibition at 2500 µM: 2.5 mM; for inhibition at 5000 µM: 5 mM; for effect on cell growth (in words): 0.5-10 mM. How it is done:
The following substances (i e 20, 34, 35, 39 and 40) were tested for their ability to modulate colon cancer cell growth. For this purpose, three human colon carcinoma cell lines (i.e. HT-29, HT-115 and DLD-1) were used. These cell types were selected on the basis of the cyclooxigenase-2 (COX-2) expression. Indeed. HT-115 cells express a biologically active COX-2, HT-29 cells express a non-functional COX-2 isoform, and DLD-1 are COX-2-deficient cells.
HT-29 and DLD-1 cells were cultured in McCoy and RPMI1640 media respectively, supplemented with 10% fetal bovine serum (FBS), 1% penicillin/streptomycin (P/S) and […] gentamycin. HT-115 were cultured in DMEM medium supplemented with 15% FBS and 1% P/S. Cells were maintained in a humidified Incubator at 37° C., in the presence of 5% CO2.
For cell growth assays, single-cell suspensions were plated at 2×10^3 cells/well (4×10^3 cells/well for HT115) in 96-well culture dishes in medium containing 0.5% FBS and allowed to adhere. The non-adherent cells were then removed, and fresh medium containing 0.5% FBS was added into each well. Cells were cultured in the presence or absence of the specified substances. Each substance was dissolved as a 25 mM stock solution in culture medium containing 0.5% FBS, and the pH of each stock solution was adjusted to 7.4, if necessary, with NaOH. Substances were used at a final concentration ranging from 0.5 to 10 mM.
Cell proliferation was determined by measuring the incorporation of 5-bromo-2′-deoxyuridine (BrdU) into DNA using a commercially available cell proliferation kit (Roche Diagnostics, Monza, Italy). BrdU was added to the cell cultures during the last 6 hours of incubation, and the level of BrdU-positive cells was assessed after 48 h culture by enzyme-linked immunosorbent assay (ELISA). Optical density (OD) was determined at 450 nm using an ELISA reader. Experiments were performed in triplicate and the results are reported as the mean t standard deviation (SD).
Cells were cultured in the presence or absence of the compounds, and cell growth was then assessed by the colorimetric (BrdU) assay after 48 hours culture.

The target in a further test is T1, PPARγ (Homo sapiens, UniProt P37231).
T1 construct: transient transfections of epithelial cells with the renilla luciferase and PPRE plamids; endogenous in cells; host or cells: HT-29 human colon carcinoma cells
T1 sequence (P37231 1-505): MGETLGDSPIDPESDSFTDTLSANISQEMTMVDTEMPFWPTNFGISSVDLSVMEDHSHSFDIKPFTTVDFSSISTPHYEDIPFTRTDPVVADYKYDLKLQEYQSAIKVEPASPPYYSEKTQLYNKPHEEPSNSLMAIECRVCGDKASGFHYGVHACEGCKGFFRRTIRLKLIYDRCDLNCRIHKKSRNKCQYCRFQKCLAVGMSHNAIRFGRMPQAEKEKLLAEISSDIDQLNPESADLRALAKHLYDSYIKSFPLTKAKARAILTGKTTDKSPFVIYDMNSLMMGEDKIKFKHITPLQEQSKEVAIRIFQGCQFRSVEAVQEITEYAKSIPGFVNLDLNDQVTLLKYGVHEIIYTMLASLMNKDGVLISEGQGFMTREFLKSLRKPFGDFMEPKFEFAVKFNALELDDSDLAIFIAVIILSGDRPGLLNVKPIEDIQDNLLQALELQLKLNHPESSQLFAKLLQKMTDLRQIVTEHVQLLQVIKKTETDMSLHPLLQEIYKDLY
The test is described as follows: PPARγ transcriptional activity, renilla luciferase/PPRE reporter gene in transfected HT-29 cells. Type of test: cell-based. Conditions: 24 hours. How it is done: Activation of PPARγ results in a cascade of reactions leading to a binding to specific DNA sequence elements termed peroxisome proliferator response elements (PPRE) (7-9).
We investigated PPARγ transcriptional activity by transient transfections of epithelial cells with the renilla luciferase and PPRE plamids. To evaluate if the new molecules have more efficacy than 5-ASA to stimulate PPARγ activation, we tested these molecules at a concentration of 1 mM. […] Cells were stimulated with the different molecules during 24 hours.
FIG. 2 represents all the results obtained for each molecule assessed in 2 or 3 experiments done in triplicate. Reproducibility between the different experiments is good and similar to data described in the literature.
In general terms: Reporter assays use an easily measured gene product as a stand-in for the process of interest.

In another test the test system is HT-29 cells. Nature of the test: Colon cancer cell growth, BrdU incorporation, HT-29 cells. Conditions: 0.5-10 mM, 48 hours. Type of test: cell-based, human. How it is done:
(§1) FIG. 3 and FIG. 4: Effect of the specified substances on the proliferation of human colon carcinoma cell lines (i.e. HT29, HT 115 and DLDI). Cells were treated with increasing concentrations of substances (0.5-10 mM)) for 48 hours and the proliferation was determined by using a colorimetric assay for the measurement of BrdU incorporation. Optical density (OD) was determined at 450 nm using an ELISA reader.
(§2) The following substances (i e 20, 34, 35, 39 and 40) were tested for their ability to modulate colon cancer cell growth. For this purpose, three human colon carcinoma cell lines (i.e. HT-29, HT-115 and DLD-1) were used. These cell types were selected on the basis of the cyclooxigenase-2 (COX-2) expression. Indeed. HT-115 cells express a biologically active COX-2, HT-29 cells express a non-functional COX-2 isoform, and DLD-1 are COX-2-deficient cells. […]
(§3) Cell proliferation was determined by measuring the incorporation of 5-bromo-2′-deoxyuridine (BrdU) into DNA using a commercially available cell proliferation kit (Roche Diagnostics, Monza, Italy). BrdU was added to the cell cultures during the last 6 hours of incubation, and the level of BrdU-positive cells was assessed after 48 h culture by enzyme-linked immunosorbent assay (ELISA). Optical density (OD) was determined at 450 nm using an ELISA reader. […]

The next test deals with HT-115 cells. Nature of the test: Colon cancer cell growth, BrdU incorporation, HT-115 cells. Conditions: 0.5-10 mM, 48 hours. It counts as cell-based, human. How it is done: as §1, §2, §3

The inhibition is the change of the read-out against control, counted positive when it falls. Higher therefore signals a strong effect. For the compound `COC(Cc1ccc(N)cc1)C(=O)O` (racemic) [Compound 34, (±)-2-methoxy-3-(4′-aminophenyl)-propionic acid], in the test on DLD-1 cells, the “effect on cell growth at high doses (in words)” value is recorded as “slightly reduced the cell growth”, testing at 500 µM gave an inhibition of 0%, testing at 1000 µM gave an inhibition of 3.6% and 2500 µM produced 1.8% inhibition. Besides, in the test with DLD-1 cells, testing at 5000 µM gave an inhibition of 3.6% and the inhibition at 10000 µM stood at 15.1%. Also, the “increase of the reporter gene activity (PPARγ activity)” value (“increase of the reporter gene activity” for short) on PPARγ (1 mM) is given as 4.8±0.71 fold.

On to `Nc1ccc(O)c(C(=O)O)c1` [Compound 5-ASA, 5-amino salicylic acid, reference compound], for which the “increase of the reporter gene activity” value on PPARγ (30 mM, positive control) worked out at 2.8±0.7 fold.

As to `Nc1cccc(CC(O)C(=O)O)c1` (racemic) [Compound 20, (±)-2-hydroxy-3-(3′-aminophenyl)-propanoic acid], the “effect on cell growth (in words)” value with HT-29 cells is “marked anti-proliferative effect in a dose-dependent fashion”. In the test with HT-115 cells, the “effect on cell growth (in words)” value is on record as “marked anti-proliferative effect in a dose-dependent fashion”. In the test with DLD-1 cells, the “effect on cell growth (in words)” value is “marked anti-proliferative effect in a dose-dependent fashion”, the inhibition at 500 µM amounted to 4.3%, the inhibition at 1000 µM worked out at 12.8% and at 2500 µM the inhibition was 16.2%. Moreover, in the test on DLD-1 cells, the inhibition at 5000 µM was 25.6% and the inhibition at 10000 µM amounted to 47%. Moreover, in the test on DLD-1 cells (final concentration of 5 or 10 mM, cell line not specified), the “significance of cell growth inhibition (in words)” value is reported as “significantly inhibit cell growth”.

With `CCOC(Cc1ccc(N)cc1)C(=O)O` (racemic) [Compound 39, (±)-2-ethoxy 3-(4′-aminophenyl)-propionic acid], in the test on DLD-1 cells, the “effect on cell growth at high doses (in words)” value is given as “slightly reduced the cell growth”, the inhibition at 500 µM stood at 1.6%, the inhibition at 1000 µM was 3.3% and the inhibition at 2500 µM came out at 8.2%. In the test with DLD-1 cells, this compound gave an inhibition at 5000 µM of 11.5% and an inhibition at 10000 µM of 12.8%. The “increase of the reporter gene activity” value on PPARγ (1 mM) is given as 2.73±0.31 fold.

Regarding `COC(Cc1cccc(N)c1)C(=O)O` (racemic) [Compound 35, (±)-2-methoxy-3-(3′-aminophenyl)-propionic acid], in the test with DLD-1 cells, the “effect on cell growth (in words)” value is “no inhibition in cell growth”, testing at 500 µM gave an inhibition of 0%, the inhibition at 1000 µM came to 3.2% and the inhibition at 2500 µM stood at 1.6%. In the test on DLD-1 cells, this compound had an inhibition at 5000 µM of 6.4% and an inhibition at 10000 µM of 4.8%. Besides, the “increase of the reporter gene activity” value at PPARγ (1 mM) worked out at 2.64±0.40 fold.

Take `CCOC(Cc1cccc(N)c1)C(=O)O` (racemic) [Compound 40, (±)-2-ethoxy-3-(3′-aminophenyl)-propanoic acid]: in the test on DLD-1 cells, the “effect on cell growth (in words)” value was “no inhibition in cell growth”, the inhibition at 500 µM turned out to be 2%, testing at 1000 µM gave an inhibition of 0% and the inhibition at 2500 µM was determined as 0%. In the test with DLD-1 cells, this compound came in with an inhibition at 5000 µM of 0% and an inhibition at 10000 µM of 2.7%. Also, at PPARγ (1 mM), the “increase of the reporter gene activity” value stood at 3.4±0.97 fold.
